Results: ChEMBL document CHEMBL3797203, “Plasmin inhibitors with hydrophobic amino acid-based linker between hydantoin moiety and benzimidazole scaffold enhance inhibitory activity” (Bioorg Med Chem Lett, 2016)

Legend:
[1] = target: Urokinase-type plasminogen activator (Homo sapiens, UniProt P00749); assay: Inhibition of human urokinase using Pyr-Gly-Arg-MCA as substrate by fluorescence assay
[2] = organism: Homo sapiens; assay: Selectivity ratio of IC50 for human urokinase to IC50 for human plasmin
[3] = target: Plasminogen (Homo sapiens, UniProt P00747); assay: Inhibition of human plasmin using Boc-Val-Leu-Lys-MCA as substrate by fluorescence assay
Sequence of Plasminogen (P00747 97-580 limits assumed): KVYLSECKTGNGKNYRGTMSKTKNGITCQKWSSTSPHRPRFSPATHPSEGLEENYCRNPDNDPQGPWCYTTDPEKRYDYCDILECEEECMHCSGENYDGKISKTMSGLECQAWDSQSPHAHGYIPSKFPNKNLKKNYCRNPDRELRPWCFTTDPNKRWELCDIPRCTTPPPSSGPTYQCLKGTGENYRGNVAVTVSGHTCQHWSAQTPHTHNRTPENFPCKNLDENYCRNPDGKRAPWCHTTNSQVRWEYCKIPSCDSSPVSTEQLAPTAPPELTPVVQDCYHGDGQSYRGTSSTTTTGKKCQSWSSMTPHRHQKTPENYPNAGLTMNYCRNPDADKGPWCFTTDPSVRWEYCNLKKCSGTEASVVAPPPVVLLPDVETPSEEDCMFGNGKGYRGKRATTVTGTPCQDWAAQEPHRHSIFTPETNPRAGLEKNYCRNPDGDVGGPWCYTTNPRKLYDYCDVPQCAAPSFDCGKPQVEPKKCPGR
Sequence of Plasminogen (P00747 581-810 limits assumed): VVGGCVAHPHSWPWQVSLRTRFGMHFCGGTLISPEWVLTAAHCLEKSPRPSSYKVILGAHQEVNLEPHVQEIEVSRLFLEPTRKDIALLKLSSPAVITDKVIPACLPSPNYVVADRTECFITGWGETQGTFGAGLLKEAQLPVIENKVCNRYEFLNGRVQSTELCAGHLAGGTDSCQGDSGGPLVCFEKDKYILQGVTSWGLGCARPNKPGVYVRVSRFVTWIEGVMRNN

Compound	IC50 [1]	Ratio IC50 [2]	IC50 [3]
CC(C)[C@H](c1nc2ccc(C(=O)N[C@H](C#N)CCCCN)cc2n1C)N1C(=O)CN(c2ccc(Oc3ccccc3)cc2)C1=O	> 200 µM	40	4.9 µM
C[C@@H](c1nc2ccc(C(=O)N[C@H](C#N)CCCCN)cc2n1C)N1C(=O)CN(c2ccc(Oc3ccccc3)cc2)C1=O	> 200 µM		11 µM
CC(C)C[C@H](c1nc2ccc(C(=O)N[C@H](C#N)CCCCN)cc2n1C)N1C(=O)CN(c2ccc(Oc3ccccc3)cc2)C1=O	150 µM		7.7 µM
CC(C)[C@@H](c1nc2ccc(C(=O)N[C@H](C#N)CCCCN)cc2n1C)N1C(=O)CN(c2ccc(Oc3ccccc3)cc2)C1=O	> 200 µM		28 µM
CC[C@@H](C)[C@H](c1nc2ccc(C(=O)N[C@H](C#N)CCCCN)cc2n1C)N1C(=O)CN(c2ccc(Oc3ccccc3)cc2)C1=O	> 200 µM		6.7 µM

Other lines, results leading:

IC50 [1]	Ratio IC50 [2]	IC50 [3]	Compound
> 200 µM		12 µM	C[C@H](c1nc2ccc(C(=O)N[C@H](C#N)CCCCN)cc2n1C)N1C(=O)CN(c2ccc(Oc3ccncc3)cc2)C1=O
> 200 µM		19 µM	C[C@@H](c1nc2ccc(C(=O)N[C@H](C#N)CCCCN)cc2n1C)N1C(=O)CN(c2ccc(Oc3ccncc3)cc2)C1=O
> 200 µM		45 µM	C[C@H](c1nc2ccc(C(=O)N[C@H](C#N)CCCCN)cc2n1C)N1C(=O)CN(c2ccc(F)cc2)C1=O
160 µM		19 µM	C[C@H](c1nc2ccc(C(=O)N[C@H](C#N)CCCCN)cc2n1C)N1C(=O)CN(c2ccc(Oc3ccccc3)cc2)C1=O
> 200 µM			Cn1c(CN2C(=O)CN(c3ccc(F)cc3)C2=O)nc2ccc(C(=O)N[C@H](C#N)CCCCN)cc21
> 200 µM		25 µM	C[C@@H](c1nc2ccc(C(=O)N[C@H](C#N)CCCCN)cc2n1C)N1C(=O)CN(c2ccc(F)cc2)C1=O
